Source: patent US6492329B1, “Cytokine and hemopoietic factor endogenous production enhancer and methods of use thereof” (Novelos Therapeutics, Inc., priority 1995, dated 2002)

Columns and labels:
leukemia L1210 cells = assay: Leukemia L1210 in mice: ascitic fluid and survival (Example 14); conditions: for Accumulation of ascitic (weight gain, %): leukemia L1210
Method: (§6) An influence of 7 day course of test article daily administration was studied in respect of tumor progression, which was estimated using the two integral indices: pace of mouse weight gain due to accumulation of ascitic fluid, and by animal mean survival time after inoculation.
(§7) The study was carried out on DBA/2 mice weighing 18-21 g. First, tumor cell passage was performed using 6 animals for each cell line. For this, cells kept at the temperature of the liquid nitrogen were de-frozen and adjusted to the concentration of 5×10^6 cells/mL by sterile Hanks' solution. Then, 6 mice were intra peritoneally inoculated with 0.2 mL of each line cellular suspension.
(§8) Ascitic fluid was collected 6 days after the inoculation with L1210 cells, 8 days after the inoculation with P388 ones and 18 days after inoculation with Erlich adenocarcinoma cells. Thus obtained, the samples of passaged tumor cells were used for the main experiments. The fluid liquid was dissolved by sterile Hanks' solution so that cell concentration be 5×10^6 cells/mL for P388 cells and Erlich adenocarcinoma cells, 5×10^5 cells/mL for L1210 cells.
(§9) Eleven groups of animals with no less than 15 mice each were formed for experiments with either tumor cell line. Mice were inoculated with 0.2 mL of resultant cell suspensions per mouse (10^6 P388 and Erlich adenocarcinoma cells/mouse, and 10^5 L1210 cells/mouse). 24 hours after the tumor cells inoculation, animals were given the first injections of the test articles or vehicles. The test article injections were made daily till the 14th day of the experiment or till the animal death. The volume of solutions injected comprised 0.01 mL/g body weight.
(§10) #1—intact animals receiving imitation of tumor cell inoculation (injection of normal saline) which further were treated with normal saline throughout the entire experiment;
(§11) #2—control animals, inoculated with tumor cells, which further were treated with test article vehicle (normal saline);

[1] = system: Erlich adenocarcinoma cells; assay: Erlich adenocarcinoma in mice: ascitic fluid and survival (Example 14); conditions: for Accumulation of ascitic (weight gain, %): Erlich adenocarcinoma
Method: as §6, §7, §8, §9, §10, §11

[2] = system: e-ras cells after UV-irradiation; assay: Number of clones of e-ras cells after UV-irradiation; type: cell-based, rat
Method: (§1) To this end, these substances had been incubated for 72 hours with cells of rat embrional fibroblasts (REF) and the same cells, transformed with adenoviral E1A gene in complementation with ras-oncogene (e-ras cell line). Subsequent evaluation of the cellularity of experimental samples was carried out by counting the quantity of cell per milliliter (for REF cell line) or clones in dish (for e-ras cell line).
(§2) Cells were cultivated on DMEM medium supplemented with 10% fetal calf serum and […] gentamicin. Cultivation was carried out in Petri dishes.
(§3) E-ras cells were seeded at a cell density of 300 cells per 5 cm dish. 7 days after growth of e-ras cells had been started the quantity of clones was evaluated and the test articles were added into the dishes.
(§4) For the test-system for estimation of apoptosis regulation UV-induced cell death was triggered in a dose of 4 Dj. Test articles were added immediately after irradiation. Then, the quantity of cell per milliliter (for REF cell line) or clones in dish (for e-ras cell line) were monitored every 24 hours. For determination of DNA-fragmentation the electrophoresis in agarose gel was used at standard settings.

[3] = system: e-ras cell line (REF transformed with E1A and ras-oncogene); assay: Number of clones of e-ras cells throughout 72-hr incubation; type: cell-based, rat
Method: as §1, §2, §3, §4

[4] = system: rat embrional fibroblasts (REF) after UV-irradiation; assay: Number of REF cells after UV-irradiation; type: cell-based
Method: as §1, §2
(§5) REF cells was cultivated with initial density of 800 000 cell per mL, evaluation of the cellularity was performed at 0, 24, 48 and 72 hours of incubation with the test articles.
as §4

[5] = system: rat embrional fibroblasts (REF); assay: Number of REF cells throughout 72-hr incubation; type: cell-based
Method: as §1, §2, §5, §4

Structure (SMILES): NCCSSCCNC(=O)CNC(=O)C(CSSCC(NC(=O)CCC(N)C(=O)O)C(=O)NCC(=O)O)NC(=O)CCC(N)C(=O)O (stereo not shown) [S-thioethylamine-GSSG + normal saline]
- Accumulation of ascitic (weight gain, %) (leukemia L1210 cells; number of injection 0): 0.77 ± 0.2%
- Accumulation of ascitic (weight gain, %) (leukemia L1210 cells; number of injection 3): 3.1 ± 0.4%
- Accumulation of ascitic (weight gain, %) (leukemia L1210 cells; number of injection 7): 92 ± 1.2%
- Mean survival time (leukemia L1210 cells; mice inoculated with leukemia L1210 cells): 19.2 ± 0.8
- Accumulation of ascitic (weight gain, %) ([1]; number of injection 0): 0.8 ± 0.1%
- Accumulation of ascitic (weight gain, %) ([1]; number of injection 3): 3.2 ± 0.6%
- Accumulation of ascitic (weight gain, %) ([1]; number of injection 7): 10.2 ± 2.2%
- Mean survival time ([1]; mice inoculated with Erlich adenocarcinoma cells): 16.2 ± 1.2

Structure (SMILES): NCCSSCCNC(=O)CNC(=O)C(CSSCC(NC(=O)CCC(N)C(=O)O)C(=O)NCC(=O)O)NC(=O)CCC(N)C(=O)O (stereo not shown) [S-thioethylamine-GSSG in normal saline]
- number of clones of e-ras cells after UV-irradiation (M ± m) ([2]; 0 hours): 286 ± 14
- number of clones of e-ras cells after UV-irradiation (M ± m) ([2]; 24 hours): 182 ± 14
- number of clones of e-ras cells after UV-irradiation (M ± m) ([2]; 48 hours): 116 ± 8
- number of clones of e-ras cells after UV-irradiation (M ± m) ([2]; 72 hours): 82 ± 4
- number of clones of e-ras cells (M ± m) ([3]; 0 hours of incubation): 286 ± 14
- number of clones of e-ras cells (M ± m) ([3]; 24 hours of incubation): 202 ± 14
- number of clones of e-ras cells (M ± m) ([3]; 48 hours of incubation): 156 ± 10
- number of clones of e-ras cells (M ± m) ([3]; 72 hours of incubation): 112 ± 12
- number of REF cells after UV-irradiation (M ± m) ([4]; 0 hours): 789 ± 21 × 10^3 cells
- number of REF cells after UV-irradiation (M ± m) ([4]; 24 hours): 422 ± 14 × 10^3 cells
- number of REF cells after UV-irradiation (M ± m) ([4]; 48 hours): 260 ± 23 × 10^3 cells
- number of REF cells after UV-irradiation (M ± m) ([4]; 72 hours): 212 ± 16 × 10^3 cells
- number of REF cells (M ± m) ([5]; 0 hours of incubation): 789 ± 21 × 10^3 cells
- number of REF cells (M ± m) ([5]; 24 hours of incubation): 1422 ± 14 × 10^3 cells
- number of REF cells (M ± m) ([5]; 48 hours of incubation): 2602 ± 43 × 10^3 cells
- number of REF cells (M ± m) ([5]; 72 hours of incubation): 5112 ± 168 × 10^3 cells

Structure (SMILES): NCCSSCCNC(=O)CNC(=O)C(CSSCC(NC(=O)CCC(N)C(=O)O)C(=O)NCC(=O)O)NC(=O)CCC(N)C(=O)O (stereo not shown) [S-thioethylamine-GSSG, S-thioethylamine-glutathione disulfide]
- death of transformed e-ras cells after UV-irradiation [2]: potentiate death of the transformed cells
- death of transformed e-ras cells ([3]; 72-hr incubation): induce a transformed cell death
- UV-induced apoptosis of normal cells (REF line) [4]: do not promote the apoptosis of normal cells
- apoptosis of normal cells (REF line) ([5]; 72-hr incubation): didn't promote apoptosis of normal cells
